# Source: patent US6737383B1, “Herbicidal oxadiazolidines” (priority 1999, dated 2004)
# How the values were obtained:
# giant foxtail = experiment: Test B pre/postemergence giant foxtail; type: in vivo, Setaria faberii
# Summary of the method: (§1)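 Test chemicals in a non-phytotoxic solvent mixture with surfactant were sprayed preemergence onto planted seeds and postemergence onto plants 2 to 18 cm tall (1- to 4-leaf stage). After twelve to sixteen days in a greenhouse, injury was visually rated against untreated controls from 0 (no effect) to 10 (complete control).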
# morningglory = experiment: Test B pre/postemergence morningglory; type: in vivo, Ipomoea hederacea
# Summary of the method: as §1
# bedstraw = experiment: Test B pre/postemergence bedstraw; type: in vivo, Galium aparine
# Summary of the method: as §1
# surinam grass = experiment: Test B pre/postemergence surinam grass; type: in vivo, Brachiaria decumbens
# Summary of the method: as §1
# velvetleaf = experiment: Test B pre/postemergence velvetleaf; type: in vivo, Abutilon theophrasti
# Summary of the method: as §1
# wheat = experiment: Test B pre/postemergence wheat; type: in vivo, Triticum aestivum
# Summary of the method: as §1
# wild oat = experiment: Test B pre/postemergence wild oat; type: in vivo, Avena fatua
# Summary of the method: as §1
# sugar beet = experiment: Test B pre/postemergence sugar beet; type: in vivo, Beta vulgaris
# Summary of the method: as §1
# corn = experiment: Test B pre/postemergence corn; type: in vivo, Zea mays
# Summary of the method: as §1
# crabgrass = experiment: Test B pre/postemergence crabgrass; type: in vivo, Digitaria sanguinalis
# Summary of the method: as §1
# pigweed = experiment: Test B pre/postemergence pigweed; type: in vivo, Amaranthus retroflexus
# Summary of the method: as §1
# purple nutsedge = experiment: Test B pre/postemergence purple nutsedge; type: in vivo, Cyperus rotundus
# Summary of the method: as §1
# blackgrass = experiment: Test B pre/postemergence blackgrass; type: in vivo, Alopecurus myosuroides
# Summary of the method: as §1
# soybean = experiment: Test B pre/postemergence soybean; type: in vivo, Glycine max
# Summary of the method: as §1
# rape = experiment: Test B pre/postemergence rape; type: in vivo, Brassica napus
# Summary of the method: as §1
# cocklebur = experiment: Test B pre/postemergence cocklebur; type: in vivo, Xanthium strumarium
# Summary of the method: as §1
# [1] = Postemergence, Rate 62 g/ha, scale of 0 to 10, 0 is no effect, 10 is complete control
# [2] = Postemergence, Rate 125 g/ha, scale 0 to 10, 0 is no effect, 10 is complete control
# [3] = Postemergence, Rate 500 g/ha, scale of 0 to 10 where 0 is no effect and 10 is complete control
# [4] = Preemergence, Rate 62 g/ha, scale 0 to 10 (0 no effect, 10 complete control)
# [5] = Preemergence, Rate 125 g/ha, scale 0 to 10, 0 is no effect, 10 is complete control
# [6] = Preemergence, Rate 500 g/ha, scale of 0 to 10 where 0 is no effect and 10 is complete control
# [7] = Rate 250 g/ha, Postemergence, scale of 0 to 10 where 0 is no effect and 10 is complete control
smiles,measurement,setting,value
CC(=O)OCCCCn1c(=O)on(C(=O)N(c2ccccc2)C(C)C)c1=O [Compound 565],Giant foxtail plant response rating,giant foxtail; [1],0
same,Giant foxtail plant response rating,giant foxtail; [2],0
same,"Plant response rating, Giant foxtail",giant foxtail; [3],3
same,Giant foxtail plant response rating,giant foxtail; [4],0
same,Giant foxtail plant response rating,giant foxtail; [5],0
same,Giant foxtail plant response rating (0 to 10 scale),"giant foxtail; Preemergence, Rate 250 g/ha",0
same,Giant foxtail plant response rating,giant foxtail; [6],2
same,"Plant response rating, Giant foxtail",giant foxtail; [7],0
same,Morningglory plant response rating,morningglory; [1],3
same,Morningglory plant response rating,morningglory; [2],5
same,"Plant response rating, Morningglory",morningglory; [3],9
same,Morningglory plant response rating,morningglory; [4],0
same,Morningglory plant response rating,morningglory; [5],0
same,Morningglory plant response rating (0 to 10 scale),"morningglory; Preemergence, Rate 250 g/ha",0
same,Morningglory plant response rating,morningglory; [6],0
same,"Plant response rating, Morningglory",morningglory; [7],7
same,Bedstraw plant response rating,bedstraw; [1],0
same,Bedstraw plant response rating,bedstraw; [2],0
same,"Plant response rating, Bedstraw",bedstraw; [3],0
same,Bedstraw plant response rating,bedstraw; [4],0
same,Bedstraw plant response rating,bedstraw; [5],0
same,Bedstraw plant response rating (0 to 10 scale),"bedstraw; Preemergence, Rate 250 g/ha",0
same,Bedstraw plant response rating,bedstraw; [6],0
same,B. signalgrass plant response rating,surinam grass; [1],0
same,B. signalgrass plant response rating,surinam grass; [2],0
same,"Plant response rating, B. signalgrass",surinam grass; [3],0
same,B. signalgrass plant response rating,surinam grass; [4],0
same,B. signalgrass plant response rating,surinam grass; [5],0
same,"B. signalgrass plant response rating (0 to 10 scale, 0 is no effect, 10 is complete control)","surinam grass; Preemergence, Rate 250 g/ha",0
same,B. signalgrass plant response rating,surinam grass; [6],0
same,"Plant response rating, B. signalgrass",surinam grass; [7],0
same,Velvetleaf plant response rating,velvetleaf; [1],3
same,"Plant response rating, Velvetleaf",velvetleaf; [3],4
same,Velvetleaf plant response rating,velvetleaf; [4],0
same,Velvetleaf plant response rating,velvetleaf; [5],0
same,Velvetleaf plant response rating (0 to 10 scale),"velvetleaf; Preemergence, Rate 250 g/ha",0
same,Velvetleaf plant response rating,velvetleaf; [6],0
same,"Plant response rating, Velvetleaf",velvetleaf; [7],4
same,Wheat plant response rating,wheat; [1],0
same,"Plant response rating, Wheat",wheat; [3],0
same,Wheat plant response rating,wheat; [4],0
same,Wheat plant response rating,wheat; [5],0
same,Wheat plant response rating (0 to 10 scale),"wheat; Preemergence, Rate 250 g/ha",0
same,Wheat plant response rating,wheat; [6],0
same,"Plant response rating, Wheat",wheat; [7],0
same,Wild oats plant response rating,wild oat; [1],0
same,"Plant response rating, Wild oats",wild oat; [3],0
same,Wild oats plant response rating,wild oat; [4],0
same,Wild oats plant response rating,wild oat; [5],0
same,Wild oats plant response rating (0 to 10 scale),"wild oat; Preemergence, Rate 250 g/ha",0
same,Wild oats plant response rating,wild oat; [6],0
same,"Plant response rating, Wild oats",wild oat; [7],0
same,Sugarbeets plant response rating,sugar beet; [1],0
same,"Plant response rating, Sugarbeets",sugar beet; [3],0
same,Sugarbeets plant response rating,sugar beet; [4],0
same,Sugarbeets plant response rating,sugar beet; [5],0
same,Sugarbeets plant response rating (0 to 10 scale),"sugar beet; Preemergence, Rate 250 g/ha",0
same,Sugarbeets plant response rating,sugar beet; [6],0
same,"Plant response rating, Sugarbeets",sugar beet; [7],0
same,Corn plant response rating,corn; [1],0
same,Corn plant response rating,corn; [2],0
same,"Plant response rating, Corn",corn; [3],0
same,Corn plant response rating,corn; [4],0
same,Corn plant response rating,corn; [5],0
same,Corn plant response rating (0 to 10 scale),"corn; Preemergence, Rate 250 g/ha",0
same,Corn plant response rating,corn; [6],0
same,"Plant response rating, Corn",corn; [7],0
same,Crabgrass plant response rating,crabgrass; [1],0
same,Crabgrass plant response rating,crabgrass; [2],0
same,"Plant response rating, Crabgrass",crabgrass; [3],3
same,Crabgrass plant response rating,crabgrass; [4],0
same,Crabgrass plant response rating,crabgrass; [5],0
same,Crabgrass plant response rating (0 to 10 scale),"crabgrass; Preemergence, Rate 250 g/ha",0
same,Crabgrass plant response rating,crabgrass; [6],2
same,"Plant response rating, Crabgrass",crabgrass; [7],0
same,Redroot pigweed plant response rating,pigweed; [1],0
same,"Plant response rating, Redroot pigweed",pigweed; [3],6
same,Redroot pigweed plant response rating,pigweed; [4],0
same,Redroot pigweed plant response rating,pigweed; [5],0
same,Redroot pigweed plant response rating (0 to 10 scale),"pigweed; Preemergence, Rate 250 g/ha",0
same,Redroot pigweed plant response rating,pigweed; [6],9
same,"Plant response rating, Redroot pigweed",pigweed; [7],6
same,Nutsedge plant response rating,purple nutsedge; [2],0
same,"Plant response rating, Nutsedge",purple nutsedge; [3],0
same,Nutsedge plant response rating,purple nutsedge; [4],0
same,Nutsedge plant response rating,purple nutsedge; [5],0
same,Nutsedge plant response rating (0 to 10 scale),"purple nutsedge; Preemergence, Rate 250 g/ha",0
same,Nutsedge plant response rating,purple nutsedge; [6],0
same,"Plant response rating, Nutsedge",purple nutsedge; [7],0
same,Blackgrass plant response rating,blackgrass; [1],0
same,Blackgrass plant response rating,blackgrass; [2],0
same,"Plant response rating, Blackgrass",blackgrass; [3],0
same,Blackgrass plant response rating,blackgrass; [4],0
same,Blackgrass plant response rating,blackgrass; [5],0
same,Blackgrass plant response rating (0 to 10 scale),"blackgrass; Preemergence, Rate 250 g/ha",0
same,Blackgrass plant response rating,blackgrass; [6],0
same,"Plant response rating, Blackgrass",blackgrass; [7],0
same,Soybean plant response rating,soybean; [1],2
same,"Plant response rating, Soybean",soybean; [3],3
same,Soybean plant response rating,soybean; [4],0
same,Soybean plant response rating,soybean; [5],0
same,Soybean plant response rating (0 to 10 scale),"soybean; Preemergence, Rate 250 g/ha",0
same,Soybean plant response rating,soybean; [6],0
same,"Plant response rating, Soybean",soybean; [7],3
same,Rape plant response rating,rape; [1],0
same,Rape plant response rating,rape; [2],0
same,"Plant response rating, Rape",rape; [3],0
same,Rape plant response rating,rape; [4],0
same,Rape plant response rating,rape; [5],0
same,Rape plant response rating (0 to 10 scale),"rape; Preemergence, Rate 250 g/ha",0
same,Rape plant response rating,rape; [6],0
same,"Plant response rating, Rape",rape; [7],0
same,Cocklebur plant response rating,cocklebur; [1],0
same,Cocklebur plant response rating,cocklebur; [2],0
same,"Plant response rating, Cocklebur",cocklebur; [3],2
same,Cocklebur plant response rating,cocklebur; [4],0
same,Cocklebur plant response rating,cocklebur; [5],0
same,Cocklebur plant response rating (0 to 10 scale),"cocklebur; Preemergence, Rate 250 g/ha",0
same,Cocklebur plant response rating,cocklebur; [6],0
same,"Plant response rating, Cocklebur",cocklebur; [7],2
